Bridge positions count the residues as written; N and C are the ends. Square brackets hold non-standard residues; d marks the D form. Peptide text beside a SMILES is read from it. * marks the point of attachment. Ala(imidazo(1,2-a)pyr3yl) = N[C@@H](Cc1cnc2ccccn12)C(=O)O; Trp(1-CH2COOH) = N[C@@H](Cc1cn(CC(=O)O)c2ccccc12)C(=O)O; NMePhe(4-COOH) = CN[C@@H](Cc1ccc(C(=O)O)cc1)C(=O)O; Nle(6-morpholino) = N[C@@H](CCCCN1CCOCC1)C(=O)O; Phe(3-COOH) = N[C@@H](Cc1cccc(C(=O)O)c1)C(=O)O; NMePhe(3-Cl) = CN[C@@H](Cc1cccc(Cl)c1)C(=O)O; 3Pal(6-OMe) = COc1ccc(C[C@H](N)C(=O)O)cn1; 3Pal(6-NH2) = Nc1ccc(C[C@H](N)C(=O)O)cn1; Tyr(3-Me) = Cc1cc(C[C@H](N)C(=O)O)ccc1O; NMeY = CN[C@@H](Cc1ccc(O)cc1)C(=O)O; Nva(3-Et) = CCC(CC)[C@H](N)C(=O)O; NH(CH2CH2O)4Me = COCCOCCOCCOCCN*; hArg = N=C(N)NCCCC[C@H](N)C(=O)O; 4Pal = N[C@@H](Cc1ccncc1)C(=O)O; PEG4 = NCCOCCOCCOCCOCCC(=O)O; Carboxymethyl = O=C(O)C*
Tests used:
Type in all cases: binding
[1] = target: T1, human transferrin receptor (hTfR) (Homo sapiens, UniProt P02786); assay: SPR measurement under pH 7.4 conditions (Biacore T200, CM3 chip, hTfR captured by His Tag antibody); settings: SPR, pH 7.4; read-out: hTfR SPR pH7.4 KD
[2] = target: T1, human transferrin receptor (hTfR); assay: SPR measurement under pH 6.0 conditions (Biacore T200, NTA chip, immobilized hTfR); settings: SPR, pH 6.0; read-out: hTfR SPR pH6.0 KD
[3] = target: T1, human transferrin receptor (hTfR); assay: Evaluation of pH dependence (ratio of SPR koff or KD at pH 6.0 to pH 7.4); settings: ratio of koff at pH 6.0 to pH 7.4
Procedure: The ratio of the calculated koff or KD values under pH 6.0 conditions to those under pH 7.4 conditions was calculated to check pH dependency.

T1 sequence (P02786 whole entry): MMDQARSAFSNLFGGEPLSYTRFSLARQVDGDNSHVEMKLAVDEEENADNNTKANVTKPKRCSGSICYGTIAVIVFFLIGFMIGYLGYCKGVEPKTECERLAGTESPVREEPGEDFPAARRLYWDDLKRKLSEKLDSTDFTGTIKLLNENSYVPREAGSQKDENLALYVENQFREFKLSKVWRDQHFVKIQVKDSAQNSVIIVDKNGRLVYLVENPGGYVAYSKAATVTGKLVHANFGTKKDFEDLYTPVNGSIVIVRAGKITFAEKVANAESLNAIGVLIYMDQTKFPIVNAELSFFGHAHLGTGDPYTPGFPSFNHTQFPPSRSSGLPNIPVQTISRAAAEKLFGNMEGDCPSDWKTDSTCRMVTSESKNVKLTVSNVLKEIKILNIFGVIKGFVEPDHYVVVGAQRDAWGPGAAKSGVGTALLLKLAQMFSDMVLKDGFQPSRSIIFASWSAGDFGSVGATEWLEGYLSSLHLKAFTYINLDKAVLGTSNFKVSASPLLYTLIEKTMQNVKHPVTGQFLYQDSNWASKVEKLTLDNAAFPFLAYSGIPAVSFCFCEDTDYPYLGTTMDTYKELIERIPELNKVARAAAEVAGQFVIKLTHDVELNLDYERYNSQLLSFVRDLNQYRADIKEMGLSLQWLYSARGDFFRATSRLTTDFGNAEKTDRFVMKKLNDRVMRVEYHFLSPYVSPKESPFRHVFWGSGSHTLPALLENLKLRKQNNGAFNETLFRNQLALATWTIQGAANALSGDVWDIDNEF

| Compound | Kd [1] [µM] | Kd [2] [µM] | dependency koff pH6.0/7.4 [3] |
| --- | --- | --- | --- |
| CC[C@H](C)[C@@H]1NC(=O)[C@H](Cc2ccc(OCC(=O)O)cc2)NC(=O)[C@H](Cc2ccc(O)cc2)NC(=O)[C@H](CC(N)=O)NC(=O)[C@H](Cc2cn(CC(=O)O)c3ccccc23)NC(=O)[C@H](C(C)C)NC(=O)[C@H](Cc2cccc(Cl)c2)N(C)C(=O)[C@H](C(C)C)NC(=O)[C@H](C)NC(=O)CSC[C@@H](C(=O)NCCOCCOCCOCCOCCC(N)=O)NC(=O)[C@H](Cc2ccc(O)cc2)N(C)C(=O)[C@H](Cc2ccncc2)NC(=O)[C@H](CCCCN2CCOCC2)NC(=O)[C@H](CCCCN2CCOCC2)NC(=O)[C@H]([C@@H](C)CC)NC1=O [compound 69] ({CH2CO}-AV[NMePhe(3-Cl)]V[Trp(1-CH2COOH)]NYY(Carboxymethyl)II[Nle(6-morpholino)][Nle(6-morpholino)][4Pal][NMeY]C[PEG4]-NH2; thioether N-15) | 0.00857 | 0.0335 | 9.63 |
| CC[C@H](C)[C@@H]1NC(=O)[C@H](Cc2ccc(OCC(=O)O)cc2)NC(=O)[C@H](Cc2ccc(N)nc2)NC(=O)[C@H](CC(N)=O)NC(=O)[C@H](Cc2c[nH]c3ccccc23)NC(=O)[C@H](C(C)C)NC(=O)[C@H](Cc2cccc(Cl)c2)N(C)C(=O)[C@H](C(C)C)NC(=O)[C@H](C)NC(=O)CSC[C@@H](C(=O)NCCOCCOCCOCCOCCC(N)=O)NC(=O)[C@H](Cc2ccc(O)cc2)N(C)C(=O)[C@H](Cc2cccc(C(=O)O)c2)NC(=O)[C@H](CCCNC(=N)N)NC(=O)[C@H](CCC(=O)NCCOCCOCCOCCOC)NC(=O)[C@H]([C@@H](C)CC)NC1=O [compound 70] ({CH2CO}-AV[NMePhe(3-Cl)]VWN[3Pal(6-NH2)]Y(Carboxymethyl)IIE(NH(CH2CH2O)4Me)R[Phe(3-COOH)][NMeY]C[PEG4]-NH2; thioether N-15) | 0.00685 | 0.0424 | 20.00 |
| CC[C@H](C)[C@@H]1NC(=O)[C@H](Cc2ccc(OCC(=O)O)cc2)NC(=O)[C@H](Cc2ccc(O)cc2)NC(=O)[C@H](CC(N)=O)NC(=O)[C@H](Cc2cn(CC(=O)O)c3ccccc23)NC(=O)[C@H](C(C)C)NC(=O)[C@H](Cc2cccc(Cl)c2)N(C)C(=O)[C@H](C(C)C)NC(=O)[C@H](C)NC(=O)CSC[C@@H](C(=O)NCCOCCOCCOCCOCCC(N)=O)NC(=O)[C@H](Cc2ccc(O)cc2)N(C)C(=O)[C@H](Cc2cccc(C(=O)O)c2)NC(=O)[C@H](CCCNC(=N)N)NC(=O)[C@H](CCC(N)=O)NC(=O)[C@H](CCCCNC(=N)N)NC1=O [compound 71] ({CH2CO}-AV[NMePhe(3-Cl)]V[Trp(1-CH2COOH)]NYY(Carboxymethyl)I[hArg]QR[Phe(3-COOH)][NMeY]C[PEG4]-NH2; thioether N-15) | 0.018 | 0.0752 | 12.78 |
| CC[C@H](C)[C@@H]1NC(=O)[C@H](Cc2ccc(OCC(=O)O)cc2)NC(=O)[C@H](Cc2ccc(O)cc2)NC(=O)[C@H](CC(N)=O)NC(=O)[C@H](Cc2c[nH]c3ccccc23)NC(=O)[C@H](C(C)C)NC(=O)[C@H](Cc2cccc(Cl)c2)N(C)C(=O)[C@H](C(C)C)NC(=O)[C@H](C)NC(=O)CSC[C@@H](C(=O)NCCOCCOCCOCCOCCC(N)=O)NC(=O)[C@H](Cc2ccc(O)cc2)N(C)C(=O)[C@H](Cc2cccc(C(=O)O)c2)NC(=O)[C@H](CCCNC(=N)N)NC(=O)[C@H](CCC(N)=O)NC(=O)[C@H]([C@@H](C)CC)NC1=O [compound 72] ({CH2CO}-AV[NMePhe(3-Cl)]VWNYY(Carboxymethyl)IIQR[Phe(3-COOH)][NMeY]C[PEG4]-NH2; thioether N-15) | 0.00334 |  | 5.72 |
| CC[C@H](C)[C@@H]1NC(=O)[C@H](Cc2ccc(OCC(=O)O)cc2)NC(=O)[C@H](Cc2ccc(O)cc2)NC(=O)[C@H](CC(N)=O)NC(=O)[C@H](Cc2cn(CCO)c3ccccc23)NC(=O)[C@H](C(C)C)NC(=O)[C@H](Cc2cccc(Cl)c2)N(C)C(=O)[C@H](C(C)C)NC(=O)[C@H](C)NC(=O)CSC[C@@H](C(=O)NCCOCCOCCOCCOCCC(N)=O)NC(=O)[C@H](Cc2ccc(O)cc2)N(C)C(=O)[C@H](Cc2cccc(C(=O)O)c2)NC(=O)[C@H](CCCNC(=N)N)NC(=O)[C@H](CCC(N)=O)NC(=O)[C@H]([C@@H](C)CC)NC1=O [compound 73] | 0.00185 | 0.00478 | 7.54 |
| CC[C@H](C)[C@@H]1NC(=O)[C@H](Cc2ccc(OCC(=O)O)cc2)NC(=O)[C@H](Cc2ccc(O)cc2)NC(=O)[C@H](CC(=O)NC)NC(=O)[C@H](Cc2c[nH]c3ccccc23)NC(=O)[C@H](C(C)C)NC(=O)[C@H](Cc2cccc(Cl)c2)N(C)C(=O)[C@H](C(C)C)NC(=O)[C@H](C)NC(=O)CSC[C@@H](C(=O)NCCOCCOCCOCCOCCC(N)=O)NC(=O)[C@H](Cc2ccc(O)cc2)N(C)C(=O)[C@H](Cc2cccc(C(=O)O)c2)NC(=O)[C@H](CCCNC(=N)N)NC(=O)[C@H](CCC(N)=O)NC(=O)[C@H]([C@@H](C)CC)NC1=O [compound 74] ({CH2CO}-AV[NMePhe(3-Cl)]VWD(NHMe)YY(Carboxymethyl)IIQR[Phe(3-COOH)][NMeY]C[PEG4]-NH2; thioether N-15) | 0.0453 | 0.0762 | 3.53 |
| CCC(CC)[C@@H]1NC(=O)[C@H](Cc2ccc(OCC(=O)O)cc2)NC(=O)[C@H](Cc2ccc(N)nc2)NC(=O)[C@H](CC(N)=O)NC(=O)[C@H](Cc2cn(CC(=O)O)c3ccccc23)NC(=O)[C@H](C(C)C)NC(=O)[C@H](Cc2cccc(Cl)c2)N(C)C(=O)[C@H](C(C)C)NC(=O)[C@H](C)NC(=O)CSC[C@@H](C(=O)NCCOCCOCCOCCOCCC(N)=O)NC(=O)[C@H](Cc2ccc(C(=O)O)cc2)N(C)C(=O)[C@H](Cc2cccc(C(=O)O)c2)NC(=O)[C@H](CCCCN2CCOCC2)NC(=O)[C@H](CCCCN2CCOCC2)NC(=O)[C@H]([C@@H](C)CC)NC1=O [compound 86] ({CH2CO}-AV[NMePhe(3-Cl)]V[Trp(1-CH2COOH)]N[3Pal(6-NH2)]Y(Carboxymethyl)[Nva(3-Et)]I[Nle(6-morpholino)][Nle(6-morpholino)][Phe(3-COOH)][NMePhe(4-COOH)]C[PEG4]-NH2; thioether N-15) |  |  | 28.16 |
| CCC(CC)[C@@H]1NC(=O)[C@H](Cc2ccc(OCC(=O)O)cc2)NC(=O)[C@H](Cc2ccc(O)c(C)c2)NC(=O)[C@H](CC(N)=O)NC(=O)[C@H](Cc2cn(CC(=O)O)c3ccccc23)NC(=O)[C@H](C(C)C)NC(=O)[C@H](Cc2cccc(Cl)c2)N(C)C(=O)[C@H](C(C)C)NC(=O)[C@H](C)NC(=O)CSC[C@@H](C(=O)NCCOCCOCCOCCOCCC(N)=O)NC(=O)[C@H](Cc2ccc(O)cc2)N(C)C(=O)[C@H](Cc2cccc(C(=O)O)c2)NC(=O)[C@H](CCCNC(=N)N)NC(=O)[C@H](CCC(N)=O)NC(=O)[C@H]([C@@H](C)CC)NC1=O [compound 89] ({CH2CO}-AV[NMePhe(3-Cl)]V[Trp(1-CH2COOH)]N[Tyr(3-Me)]Y(Carboxymethyl)[Nva(3-Et)]IQR[Phe(3-COOH)][NMeY]C[PEG4]-NH2; thioether N-15) |  |  | 8.08 |
| CCC(CC)[C@@H]1NC(=O)[C@H](Cc2ccc(OC)nc2)NC(=O)[C@H](Cc2ccc(O)cc2)NC(=O)[C@H](CC(N)=O)NC(=O)[C@H](Cc2cn(CC(=O)O)c3ccccc23)NC(=O)[C@H](C(C)C)NC(=O)[C@H](Cc2cccc(Cl)c2)N(C)C(=O)[C@H](C(C)C)NC(=O)[C@H](C)NC(=O)CSC[C@@H](C(=O)NCCOCCOCCOCCOCCC(N)=O)NC(=O)[C@H](Cc2ccc(O)cc2)N(C)C(=O)[C@H](Cc2cccc(C(=O)O)c2)NC(=O)[C@H](CCCNC(=N)N)NC(=O)[C@H](CCC(N)=O)NC(=O)[C@H]([C@@H](C)CC)NC1=O [compound 90] ({CH2CO}-AV[NMePhe(3-Cl)]V[Trp(1-CH2COOH)]NY[3Pal(6-OMe)][Nva(3-Et)]IQR[Phe(3-COOH)][NMeY]C[PEG4]-NH2; thioether N-15) |  |  | 8.01 |
| CCC(CC)[C@@H]1NC(=O)[C@H](Cc2cnc3ccccn23)NC(=O)[C@H](Cc2ccc(O)cc2)NC(=O)[C@H](CC(N)=O)NC(=O)[C@H](Cc2cn(CC(=O)O)c3ccccc23)NC(=O)[C@H](C(C)C)NC(=O)[C@H](Cc2cccc(Cl)c2)N(C)C(=O)[C@H](C(C)C)NC(=O)[C@H](C)NC(=O)CSC[C@@H](C(=O)NCCOCCOCCOCCOCCC(N)=O)NC(=O)[C@H](Cc2ccc(O)cc2)N(C)C(=O)[C@H](Cc2cccc(C(=O)O)c2)NC(=O)[C@H](CCCNC(=N)N)NC(=O)[C@H](CCC(N)=O)NC(=O)[C@H]([C@@H](C)CC)NC1=O [compound 91] ({CH2CO}-AV[NMePhe(3-Cl)]V[Trp(1-CH2COOH)]NY[Ala(imidazo(1,2-a)pyr3yl)][Nva(3-Et)]IQR[Phe(3-COOH)][NMeY]C[PEG4]-NH2; thioether N-15) |  |  | 9.32 |
| CCC(CC)[C@@H]1NC(=O)[C@H](Cc2ccc(OCC(=O)O)cc2)NC(=O)[C@H](Cc2ccc(O)cc2)NC(=O)[C@H](CC(N)=O)NC(=O)[C@H](Cc2cn(CC(=O)O)c3ccccc23)NC(=O)[C@H](C(C)C)NC(=O)[C@H](Cc2cccc(Cl)c2)N(C)C(=O)[C@H](C(C)C)NC(=O)[C@H](C)NC(=O)CSC[C@@H](C(=O)NCCOCCOCCOCCOCCC(N)=O)NC(=O)[C@H](Cc2ccc(OC)cc2)N(C)C(=O)[C@H](Cc2cccc(C(=O)O)c2)NC(=O)[C@H](CCCNC(=N)N)NC(=O)[C@H](CCC(N)=O)NC(=O)[C@H]([C@@H](C)CC)NC1=O [compound 93] ({CH2CO}-AV[NMePhe(3-Cl)]V[Trp(1-CH2COOH)]NYY(Carboxymethyl)[Nva(3-Et)]IQR[Phe(3-COOH)][NMeY](Me)C[PEG4]-NH2; thioether N-15) |  |  | 7.99 |
